From patent US11046889B2, “Polymerizable compound and optically anisotropic body” (DIC Corporation, priority 2015, dated 2021)

Test: Solubility check of 20 wt % solutions in organic solvents
Format: physicochemical
Set-up: key: A: the compound dissolves at room temperature; B: the compound does not dissolve at room temperature but dissolves when heated to 60° C.; the compound does not dissolve even when heated to 60° C
Conditions: room temperature or heated to 60° C.; for Results of Solubility Chloroform: 20 wt % solution in chloroform; for Results of Solubility Cyclopentanone: 20 wt % solution in cyclopentanone; for Results of Solubility MEK: 20 wt % solution in methyl ethyl ketone (MEK); for Results of Solubility MIBK: 20 wt % solution in methyl isobutyl ketone (MIBK); for Results of Solubility Toluene: 20 wt % solution in toluene; for Results of Solubility Trichloroethane: 20 wt % solution in trichloroethane
Method: 20 wt % solutions of each of the compounds to be evaluated in chloroform, trichloroethane, cyclopentanone, methyl ethyl ketone (MEK), methyl isobutyl ketone (MIBK), and toluene were prepared to check the solubilities of the compound to be evaluated.

Row | Structure (SMILES) | Results of Solubility Chloroform | Results of Solubility Cyclopentanone | Results of Solubility MEK | Results of Solubility MIBK | Results of Solubility Toluene | Results of Solubility Trichloroethane
1 | C=CC(=O)OCCOCCOCCOc1ccc(C(=O)Oc2ccc(-c3ccc(CCC)cc3)cc2/C=N/Nc2nc3ccccc3s2)cc1 [Compound I-1] | A | A | A | A | A | A
2 | C=CC(=O)OCCOCCOCCOc1ccc(OC(=O)C2CCC(C(=O)Oc3ccc(C4CCC(CCC)CC4)cc3/C=N/Nc3nc4ccccc4s3)CC2)cc1 (stereo not drawn) [Compound I-2] | A | A | A | B | A | A
3 | C=CC(=O)OCCOCCOCCOc1ccc(OC(=O)C2CCC(C(=O)Oc3ccc(C4CCC(CCC)CC4)cc3/C=N/N(CCCCCC)c3nc4ccccc4s3)CC2)cc1 (stereo not drawn) [Compound I-3] | A | A | C | C | B | A
4 | C=CC(=O)OCCOCCOCCOc1ccc(OC(=O)C2CCC(C(=O)Oc3ccc(C4CCC(C5CCC(CCC)CC5)CC4)cc3/C=N/N(CCCCCC)c3nc4ccccc4s3)CC2)cc1 (stereo not drawn) [Compound I-4] | A | B | C | C | B | B
5 | C=CC(=O)OCCCCCCOc1ccc(OC(=O)C2CCC(COc3ccc(OCC4CCC(C(=O)Oc5ccc(OCCCCCCOC(=O)C=C)cc5)CC4)c(/C=N/N(CCOCCOC)c4nc5ccccc5s4)c3)CC2)cc1 (stereo not drawn) [Compound I-6] | A | A | B | B | B | A
6 | C=CC(=O)OCCCCCCOc1ccc(OC(=O)C2CCC(C(=O)Oc3ccc(C4CCC(CCC)CC4)cc3/C=N/N(CCOCCOC)c3nc4ccccc4s3)CC2)cc1 (stereo not drawn) [Compound I-7] | A | A | A | B | A | A
7 | C=CC(=O)OCCCCCCOc1ccc(OC(=O)C2CCC(COc3ccc(OCC4CCC(C(=O)Oc5ccc(OCCCCCCOC(=O)C=C)cc5)CC4)c(/C=N/N(CCOCCOCCOC(=O)C=C)c4nc5ccccc5s4)c3)CC2)cc1 (stereo not drawn) [Compound I-9] | A | A | A | B | A | A
8 | C=CC(=O)OCCCCCCOc1ccc(OC(=O)C2CCC(COc3ccc(C4CCC(CCC)CC4)cc3/C=N/N(CCOCCOC)c3nc4ccccc4s3)CC2)cc1 (stereo not drawn) [Compound I-10] | A | A | B | B | A | A
9 | C=CC(=O)OCCCCCCOc1ccc(OC(=O)C2CCC(COc3ccc(-c4ccc(CCC)cc4)c(/C=N/N(CCOCCOC)c4nc5ccccc5s4)c3)CC2)cc1 (stereo not drawn) [Compound I-11] | A | A | B | B | A | A
10 | C=CC(=O)OCCOCCOC(=O)C1CCC(C(=O)OC2CCC(C(=O)Oc3ccc(OC(=O)C4CCC(OC(=O)C5CCC(C(=O)OCCOCCOC(=O)C=C)CC5)CC4)c4c3SC(=C3C(=O)N(c5ccccc5)N=C3C(=O)OCC)S4)CC2)CC1 (stereo not drawn) [Compound I-14] | A | B | B | C | B | A
11 | C=CC(=O)OCCCCOC(=O)C1CCC(C(=O)OC2CCC(C(=O)Oc3ccc(OC(=O)C4CCC(OC(=O)C5CCC(C(=O)OCCCCOC(=O)C=C)CC5)CC4)c4c3SC(=C(C#N)C(=O)OCCOCCOC(=O)C=C)S4)CC2)CC1 (stereo not drawn) [Compound I-15] | A | B | B | C | B | A
12 | C=C(C)C(=O)OCCCCCCOc1ccc(OC(=O)C2CCC(COc3ccc(OCC4CCC(C(=O)Oc5ccc(OCCCCCCOC(=O)C(=C)C)cc5)CC4)c(/C=N/N(CCOCCOC)c4nc5ccccc5s4)c3)CC2)cc1 (stereo not drawn) [Compound I-16] | A | A | B | B | A | A
13 | C=CC(=O)OCCCCCCOc1ccc(OC(=O)C2CCC(C(=O)Oc3ccc(C4CCC(C5CCC(CCC)CC5)CC4)cc3/C=N/N(CCOCCOC)c3nc4ccccc4s3)CC2)cc1 (stereo not drawn) [Compound I-17] | A | B | C | C | B | B
14 | C=CC(=O)OCCCOC(=O)C1CCC(C(=O)OC2CCC(C(=O)Oc3ccc(OC(=O)C4CCC(OC(=O)C5CCC(C(=O)OCCCOC(=O)C=C)CC5)CC4)c4c3SC(=C3C(=O)N(c5ccccc5)N=C3C(=O)OCC)S4)CC2)CC1 (stereo not drawn) [Compound R-3, reference compound] | A | C | C | C | B | B

The remaining lines, values ahead:

Row | Results of Solubility Chloroform | Results of Solubility Cyclopentanone | Results of Solubility MEK | Results of Solubility MIBK | Results of Solubility Toluene | Results of Solubility Trichloroethane | Structure (SMILES)
15 | A | A | B | B | A | A | C=CC(=O)OCCOCCOCCOc1ccc(OC(=O)C2CCC(COc3ccc(OCC4CCC(C(=O)Oc5ccc(OCCOCCOCCOC(=O)C=C)cc5)CC4)c(/C=N/N(CCCCCC)c4nc5ccccc5s4)c3)CC2)cc1 (stereo not drawn) [Compound I-5]
16 | A | A | B | B | A | A | C=CC(=O)OCCCOc1ccc(OC(=O)C2CCC(COc3ccc(OCC4CCC(C(=O)Oc5ccc(OCCCOC(=O)C=C)cc5)CC4)c(/C=N/N(CCOCCOC)c4nc5ccccc5s4)c3)CC2)cc1 (stereo not drawn) [Compound I-8]
17 | A | B | B | C | B | A | C=CC(=O)OCCOCCOCCOc1ccc(OC(=O)C2CCC(C(=O)Oc3ccc(OC(=O)C4CCC(C(=O)Oc5ccc(OCCOCCOCCOC(=O)C=C)cc5)CC4)c4sc(-c5ccc([N+](=O)[O-])cc5)nc34)CC2)cc1 (stereo not drawn) [Compound I-12]
18 | A | B | C | C | B | A | C=CC(=O)OCCOCCOc1ccc(OC(=O)C2CCC(C(=O)Oc3ccc(OC(=O)C4CCC(C(=O)Oc5ccc(OCCOCCOC(=O)C=C)cc5)CC4)c4sc(-c5cc6c(C)cc(C)cc6o5)nc34)CC2)cc1 (stereo not drawn) [Compound I-13]
19 | A | B | C | C | B | B | C=CC(=O)OCCCCCCOc1ccc(OC(=O)C2CCC(C(=O)Oc3ccc(OC(=O)C4CCC(C(=O)Oc5ccc(OCCCCCCOC(=O)C=C)cc5)CC4)c(/C=N/N(COCCOC)c4nc5ccccc5s4)c3)CC2)cc1 (stereo not drawn) [Compound R-1, reference compound]
20 | B | C | C | C | B | B | C=CC(=O)OCCCCCCOc1ccc(OC(=O)C2CCC(C(=O)Oc3ccc(OC(=O)C4CCC(C(=O)Oc5ccc(OCCCCCCOC(=O)C=C)cc5)CC4)c4sc(-c5ccc([N+](=O)[O-])cc5)nc34)CC2)cc1 (stereo not drawn) [Compound R-2, reference compound]
